Data from ChEMBL document CHEMBL1201862, “PubChem BioAssay data set” (2004).
Calls of active or inactive are those of the source.

Assays:
HEK293 = assay: cells; assay type: functional, cell-based; settings: Homo sapiens
[1] = biological target: T1, Nuclear receptor subfamily 0 group B member 1 (Homo sapiens, UniProt P51843); assay: Luminescence-based cell-based high throughput dose response assay for inhibitors of the orphan nuclear receptor subfamily 0, group B, member 1 (DAX1; NR0B1). [Related pubchem assays (depositor defined):AID504766, AID504790]; assay type: functional
T1 sequence (P51843 whole entry): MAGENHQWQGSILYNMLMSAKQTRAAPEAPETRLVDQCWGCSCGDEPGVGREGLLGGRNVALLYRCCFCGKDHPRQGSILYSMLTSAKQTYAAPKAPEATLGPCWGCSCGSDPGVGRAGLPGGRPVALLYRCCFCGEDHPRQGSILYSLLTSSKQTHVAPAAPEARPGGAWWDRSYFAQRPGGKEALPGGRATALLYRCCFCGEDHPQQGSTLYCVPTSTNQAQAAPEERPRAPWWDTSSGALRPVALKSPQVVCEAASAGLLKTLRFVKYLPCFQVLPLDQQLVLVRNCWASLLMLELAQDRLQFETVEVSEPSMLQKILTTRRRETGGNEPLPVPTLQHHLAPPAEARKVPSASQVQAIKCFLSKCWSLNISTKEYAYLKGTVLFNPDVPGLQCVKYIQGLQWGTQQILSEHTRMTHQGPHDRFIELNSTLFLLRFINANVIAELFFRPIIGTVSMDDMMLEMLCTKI

[2] = biological target: Ras and Rab interactor 1/Tyrosine-protein kinase ABL1 (Homo sapiens, UniProt P00519+Q13671); assay type: functional;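 also: biochemical TR-FRET dose-response test measuring inhibition of binding between Rin1 and Abl proteins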
[3] = nonselective inhibitors of cellular cAMP signaling, dose response, counter-screen for MC4R biased antagonist project, cell-based, TR-FRET cAMP detection (AID 602305); assay type: functional;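 also: U2OS cells stimulated with forskolin near its EC80 as the cAMP inducer; potency is for inhibition of forskolin-stimulated cAMP signaling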
[4] = biological target: SWI/SNF-related matrix-associated actin-dependent regulator of chromatin subfamily A member 2 (Homo sapiens, UniProt P51531); assay: Luminescence-based cell-based high throughput dose response assay to identify activators of the function of SWI/SNF related, matrix associated, actin dependent regulator of chromatin, subfamily a, member 2 (SMARCA2, BRM).; assay type: functional
Melanocortin receptor 4 = Melanocortin receptor 4 (Homo sapiens, UniProt P32245); assay: MC4R antagonist potency on cAMP, dose response, cell-based, TR-FRET, biased antagonists (AID 602298); assay type: functional;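 also: antagonist potency against agonist-stimulated cAMP production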
[5] = Counterscreen for activators of the function of SWI/SNF related, matrix associated, actin dependent regulator of chromatin, subfamily a, member 2 (SMARCA2, BRM): Luminescence-based cell-based high throughput dose response assay to identify non-selective compounds using the VP16 reporter assay.; assay type: functional
[6] = biological target: Heat shock protein HSP 90-alpha (Homo sapiens, UniProt P07900); assay type: functional, organism-based
[7] = biological target: Dual specificity tyrosine-phosphorylation-regulated kinase 1A (Rattus norvegicus, UniProt Q63470); assay type: biochemical, Homo sapiens
Prothrombin = Prothrombin (Bos taurus, UniProt P00735); assay: thrombin inhibition, dose response, biochemical, fluorescence polarization, uHTS hits (AID 602369); assay type: functional
[8] = biological target: 72 kDa type IV collagenase (Homo sapiens, UniProt P08253); assay: Dose Response validation of uHTS RPN11 inhibitor hits using a MMP-2 Fluorescence assay.; assay type: functional
[9] = biological target: 26S proteasome non-ATPase regulatory subunit 14 (Homo sapiens, UniProt O00487); assay: inhibition of proteasome subunit RPN11 – biochemical, fluorescence polarization, uHTS hits, confirmation (AID 602368); assay type: functional
[10] = growth suppression of beta-catenin-knockout colon cells, dose response, cell-based, HCT116, human colon tumor (AID 1045); assay type: functional;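 also: HCT116 colon tumor cells with beta catenin knocked out; cells exposed to compound for 60 hours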
A-375 = assay: MITF: Counter assay: A375 proliferation Measured in Cell-Based System Using Plate Reader - 2084-03_Inhibitor_Dose_DryPowder_Activity. [Related pubchem assays (depositor defined):AID488944]; assay type: functional; settings: Homo sapiens
[11] = biological target: T2, Microphthalmia-associated transcription factor (Homo sapiens, UniProt O75030); assay: TRPM1 promoter luciferase signal decrease, dose response, MITF inhibitor project, cell-based, SK-MEL-5, cherry-picked, set 3 (AID 493073); assay type: functional
T2 sequence (O75030 whole entry): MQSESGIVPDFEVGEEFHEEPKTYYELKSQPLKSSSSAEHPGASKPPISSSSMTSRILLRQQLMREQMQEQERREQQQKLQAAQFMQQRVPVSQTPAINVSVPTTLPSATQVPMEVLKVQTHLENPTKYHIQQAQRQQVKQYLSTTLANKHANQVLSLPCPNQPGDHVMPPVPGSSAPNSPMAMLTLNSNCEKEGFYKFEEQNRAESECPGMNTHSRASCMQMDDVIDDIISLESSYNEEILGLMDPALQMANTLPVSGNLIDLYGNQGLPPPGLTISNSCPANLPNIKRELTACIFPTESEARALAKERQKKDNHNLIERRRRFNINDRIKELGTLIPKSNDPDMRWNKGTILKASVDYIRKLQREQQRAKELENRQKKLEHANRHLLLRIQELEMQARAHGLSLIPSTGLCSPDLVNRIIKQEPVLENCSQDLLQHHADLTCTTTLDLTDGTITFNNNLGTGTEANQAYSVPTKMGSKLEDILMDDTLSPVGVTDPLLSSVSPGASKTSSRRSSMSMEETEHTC

[12] = growth suppression of PTEN-null colon cells, dose response, cell-based, HCT116 PTEN knockout (AID 1047); assay type: functional;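 also: HCT116 colon tumor cells with PTEN knocked out; cells exposed to compound for 60 hours before readout; potency for loss of cell viability measured by luminescence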
[13] = biological target: Protein disulfide-isomerase (Homo sapiens, UniProt P07237); assay: PDI inhibitors, insulin aggregation turbidity, dose response, biochemical, absorbance, cherry-picked samples (AID 602350); assay type: functional
[14] = biological target: T3, High affinity choline transporter 1 (Homo sapiens, UniProt Q9GZV3); assay: CHT inhibitors, dose response, cell-based, 5-point CRC, membrane potential dye (AID 504840); assay type: functional
T3 sequence (Q9GZV3 whole entry): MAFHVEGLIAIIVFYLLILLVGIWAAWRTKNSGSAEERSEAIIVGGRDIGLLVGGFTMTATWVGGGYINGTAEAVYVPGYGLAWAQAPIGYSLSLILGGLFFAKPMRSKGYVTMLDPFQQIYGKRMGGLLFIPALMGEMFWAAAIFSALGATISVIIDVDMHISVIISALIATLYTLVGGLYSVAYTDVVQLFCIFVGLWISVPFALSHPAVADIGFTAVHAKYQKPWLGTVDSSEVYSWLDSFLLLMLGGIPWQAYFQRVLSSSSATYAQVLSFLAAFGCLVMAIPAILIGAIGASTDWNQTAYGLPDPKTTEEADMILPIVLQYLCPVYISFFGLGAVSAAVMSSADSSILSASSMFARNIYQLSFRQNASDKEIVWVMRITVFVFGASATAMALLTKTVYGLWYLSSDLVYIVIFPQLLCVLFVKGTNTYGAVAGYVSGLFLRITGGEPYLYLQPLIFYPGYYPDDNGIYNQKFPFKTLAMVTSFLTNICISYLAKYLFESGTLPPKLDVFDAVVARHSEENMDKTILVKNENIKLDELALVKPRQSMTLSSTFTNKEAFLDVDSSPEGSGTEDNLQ

Escherichia coli = assay: microbe, parasite or virus in culture
[15] = control 3'UTR Renilla luciferase suppression, dose response, counter-screen for Shn3 inhibitor project, cell-based, Clone20-Shn3RL, cherry-picked (AID 624133); assay type: functional
[16] = Shn3 3'UTR reporter inhibitors, dose response, cell-based, Clone20 osteoblasts, firefly luciferase, cherry-picked (AID 624132); assay type: functional;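 also: firefly luciferase luminescence from reporter carrying the Shn3 3'UTR in osteoblasts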
[17] = HepG2 cell cytotoxicity, dose response, cytotoxicity control for Shn3 inhibitor project, CellTiter-Glo, cherry-picked (AID 624134); assay type: functional, cell-based
[18] = biological target: Dual specificity protein kinase CLK4 (Homo sapiens, UniProt Q9HAZ1); assay type: functional
LIM domain kinase 1 = LIM domain kinase 1 (Homo sapiens, UniProt P53667); assay: Navigating the Kinome. Panel member name: LIMK1; assay type: functional
[19] = biological target: Serine/threonine-protein kinase Nek2 (Homo sapiens, UniProt P51955); assay type: functional
[20] = biological target: Serine/threonine-protein kinase Chk1 (Homo sapiens, UniProt O14757); assay type: functional;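 also: measured as one member of a kinome-wide kinase profiling panel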
[21] = biological target: Tyrosine-protein kinase receptor TYRO3 (Homo sapiens, UniProt Q06418); assay type: functional;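 also: TYRO3 value obtained as one member of a kinome-wide profiling panel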
[22] = biological target: Mitogen-activated protein kinase kinase kinase kinase 2 (Homo sapiens, UniProt Q12851); assay type: functional;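 also: measured as one member of a kinome-wide kinase panel, with MAP4K2 as the panel entry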
[23] = biological target: Dual specificity mitogen-activated protein kinase kinase 1 (Homo sapiens, UniProt Q02750); assay: Navigating the Kinome. Panel member name: MAP2K1; assay type: functional
[24] = biological target: Proto-oncogene tyrosine-protein kinase receptor Ret (Homo sapiens, UniProt P07949); assay type: functional;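 also: measured within a kinome-wide profiling panel, RET as the panel member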
[25] = biological target: Tyrosine-protein kinase JAK2 (Homo sapiens, UniProt O60674); assay type: functional;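 also: JAK2 tested as one member of a kinase panel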
[26] = biological target: T4, Rac GTPase-activating protein 1 (Homo sapiens, UniProt Q9H0H5); assay: MgcRacGAP GTPase-activating activity inhibitors, confirmation, biochemical, ADP Hunter fluorescence, primary and confirmatory (AID 624330); assay type: functional
T4 sequence (Q9H0H5 whole entry): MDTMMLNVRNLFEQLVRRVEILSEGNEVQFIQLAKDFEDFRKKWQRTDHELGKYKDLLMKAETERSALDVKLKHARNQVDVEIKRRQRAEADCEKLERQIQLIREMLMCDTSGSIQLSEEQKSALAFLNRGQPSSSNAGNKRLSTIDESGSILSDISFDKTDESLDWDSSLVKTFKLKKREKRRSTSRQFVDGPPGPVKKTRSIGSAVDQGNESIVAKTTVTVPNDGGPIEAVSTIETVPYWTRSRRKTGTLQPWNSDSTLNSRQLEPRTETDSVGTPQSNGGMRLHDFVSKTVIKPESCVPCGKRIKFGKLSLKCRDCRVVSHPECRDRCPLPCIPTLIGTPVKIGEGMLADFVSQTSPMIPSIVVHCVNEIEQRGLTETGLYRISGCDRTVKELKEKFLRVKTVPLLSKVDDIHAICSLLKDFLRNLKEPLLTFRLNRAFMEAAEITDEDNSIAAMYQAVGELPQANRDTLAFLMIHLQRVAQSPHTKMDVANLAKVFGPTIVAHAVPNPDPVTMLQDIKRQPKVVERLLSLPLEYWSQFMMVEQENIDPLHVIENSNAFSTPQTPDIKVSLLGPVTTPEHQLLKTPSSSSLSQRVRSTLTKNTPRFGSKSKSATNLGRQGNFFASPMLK

Aurora kinase B = Aurora kinase B (Homo sapiens, UniProt Q96GD4); assay type: functional
Aurora kinase A = Aurora kinase A (Homo sapiens, UniProt O14965); assay type: functional;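 also: value from the Navigating the Kinome kinase panel profiling, panel entry STK6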
Streptococcus = assay: Group A Streptococcus viability loss, dose response, counter-screen for streptokinase expression inhibitor project, luminescence, BacTiterGlo (AID 1915); assay type: functional, organism-based;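 also: potency for reduction of bacterial viability or growth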
[27] = test system: Streptococcus sp. 'group A'; assay: growth inhibition of control SK(-) GAS strain, dose response, counter-screen for streptokinase expression inhibitor project, luminescence, kanamycin, BacTiterGlo, confirmation (AID 1900); assay type: functional, organism-based

Melanocortin receptor 4, sequence (P32245 whole entry): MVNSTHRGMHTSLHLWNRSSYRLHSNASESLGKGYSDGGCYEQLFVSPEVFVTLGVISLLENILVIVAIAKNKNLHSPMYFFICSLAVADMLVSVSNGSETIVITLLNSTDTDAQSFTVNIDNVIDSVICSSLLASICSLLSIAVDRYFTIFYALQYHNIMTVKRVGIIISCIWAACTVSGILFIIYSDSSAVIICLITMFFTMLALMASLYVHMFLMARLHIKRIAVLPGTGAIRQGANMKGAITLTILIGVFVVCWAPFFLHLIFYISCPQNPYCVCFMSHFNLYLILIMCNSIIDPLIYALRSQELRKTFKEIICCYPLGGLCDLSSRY
SWI/SNF-related matrix-associated actin-dependent regulator of chromatin subfamily A member 2, sequence (P51531 whole entry): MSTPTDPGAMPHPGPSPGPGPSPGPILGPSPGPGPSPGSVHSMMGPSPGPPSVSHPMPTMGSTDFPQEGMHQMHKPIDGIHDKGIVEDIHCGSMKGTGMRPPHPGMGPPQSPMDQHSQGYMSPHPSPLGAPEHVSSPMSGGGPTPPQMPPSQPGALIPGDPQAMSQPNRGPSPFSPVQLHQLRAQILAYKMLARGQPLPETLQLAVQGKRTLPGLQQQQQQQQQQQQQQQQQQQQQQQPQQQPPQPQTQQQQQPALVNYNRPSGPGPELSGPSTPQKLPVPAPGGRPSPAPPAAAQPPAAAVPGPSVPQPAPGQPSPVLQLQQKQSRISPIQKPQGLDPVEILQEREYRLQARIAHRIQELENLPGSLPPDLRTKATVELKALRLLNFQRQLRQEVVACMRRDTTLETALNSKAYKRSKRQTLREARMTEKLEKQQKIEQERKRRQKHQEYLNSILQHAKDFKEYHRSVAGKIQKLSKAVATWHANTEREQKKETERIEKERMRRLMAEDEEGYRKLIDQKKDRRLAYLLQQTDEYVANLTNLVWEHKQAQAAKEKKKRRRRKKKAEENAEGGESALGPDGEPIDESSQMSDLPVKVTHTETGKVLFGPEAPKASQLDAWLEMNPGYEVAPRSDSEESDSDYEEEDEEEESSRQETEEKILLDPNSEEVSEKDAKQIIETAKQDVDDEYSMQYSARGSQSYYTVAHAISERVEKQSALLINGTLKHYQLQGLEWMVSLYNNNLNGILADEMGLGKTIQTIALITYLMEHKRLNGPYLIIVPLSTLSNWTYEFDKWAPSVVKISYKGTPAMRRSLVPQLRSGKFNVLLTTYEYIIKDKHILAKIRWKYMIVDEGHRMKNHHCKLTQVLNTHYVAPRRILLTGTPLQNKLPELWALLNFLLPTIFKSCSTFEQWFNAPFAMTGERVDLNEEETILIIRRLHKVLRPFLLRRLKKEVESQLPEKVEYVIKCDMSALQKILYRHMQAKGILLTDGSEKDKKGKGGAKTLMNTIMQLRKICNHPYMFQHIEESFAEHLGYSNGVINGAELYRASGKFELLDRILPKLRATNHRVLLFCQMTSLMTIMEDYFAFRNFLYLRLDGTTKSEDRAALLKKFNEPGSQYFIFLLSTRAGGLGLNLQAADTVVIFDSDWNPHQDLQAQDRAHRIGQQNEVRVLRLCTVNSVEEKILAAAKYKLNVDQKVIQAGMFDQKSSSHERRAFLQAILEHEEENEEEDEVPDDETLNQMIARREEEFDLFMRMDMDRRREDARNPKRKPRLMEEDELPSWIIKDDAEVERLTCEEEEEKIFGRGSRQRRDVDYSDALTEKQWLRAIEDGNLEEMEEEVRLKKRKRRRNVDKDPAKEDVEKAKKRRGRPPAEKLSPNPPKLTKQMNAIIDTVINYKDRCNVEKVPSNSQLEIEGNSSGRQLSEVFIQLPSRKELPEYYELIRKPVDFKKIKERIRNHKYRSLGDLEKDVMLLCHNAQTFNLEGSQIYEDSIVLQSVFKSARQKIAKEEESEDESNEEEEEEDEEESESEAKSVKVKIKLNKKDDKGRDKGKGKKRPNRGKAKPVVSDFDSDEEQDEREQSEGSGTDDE
Proto-oncogene tyrosine-protein kinase receptor Ret, sequence (P07949 whole entry): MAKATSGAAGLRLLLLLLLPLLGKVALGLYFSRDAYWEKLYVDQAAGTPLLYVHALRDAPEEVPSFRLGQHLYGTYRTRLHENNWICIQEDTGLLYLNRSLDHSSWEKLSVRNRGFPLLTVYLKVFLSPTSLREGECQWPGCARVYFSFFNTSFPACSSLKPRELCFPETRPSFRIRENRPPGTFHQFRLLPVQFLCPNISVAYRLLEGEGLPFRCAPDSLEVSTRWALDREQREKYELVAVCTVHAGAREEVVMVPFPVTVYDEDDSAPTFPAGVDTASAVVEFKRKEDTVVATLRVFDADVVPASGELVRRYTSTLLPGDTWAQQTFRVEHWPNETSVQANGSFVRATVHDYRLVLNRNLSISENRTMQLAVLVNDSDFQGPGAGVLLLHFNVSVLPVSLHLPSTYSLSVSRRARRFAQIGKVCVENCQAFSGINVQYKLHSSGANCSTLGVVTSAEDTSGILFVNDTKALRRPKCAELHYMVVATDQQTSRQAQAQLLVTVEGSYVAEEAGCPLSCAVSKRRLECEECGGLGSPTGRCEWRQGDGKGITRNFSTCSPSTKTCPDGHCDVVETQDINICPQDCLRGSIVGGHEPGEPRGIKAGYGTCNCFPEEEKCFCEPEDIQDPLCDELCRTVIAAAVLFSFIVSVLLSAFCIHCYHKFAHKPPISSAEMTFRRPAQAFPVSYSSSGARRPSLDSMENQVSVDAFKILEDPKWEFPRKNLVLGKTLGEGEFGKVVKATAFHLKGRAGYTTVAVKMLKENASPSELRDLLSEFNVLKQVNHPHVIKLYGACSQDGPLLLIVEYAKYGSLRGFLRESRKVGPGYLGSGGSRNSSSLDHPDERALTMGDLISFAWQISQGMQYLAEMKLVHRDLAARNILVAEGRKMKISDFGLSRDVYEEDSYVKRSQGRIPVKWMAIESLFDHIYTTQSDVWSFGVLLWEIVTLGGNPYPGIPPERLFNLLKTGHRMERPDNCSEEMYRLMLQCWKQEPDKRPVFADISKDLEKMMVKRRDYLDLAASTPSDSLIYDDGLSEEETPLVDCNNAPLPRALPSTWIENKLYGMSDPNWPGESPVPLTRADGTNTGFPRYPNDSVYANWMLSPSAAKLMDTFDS
Serine/threonine-protein kinase Chk1, sequence (O14757 whole entry): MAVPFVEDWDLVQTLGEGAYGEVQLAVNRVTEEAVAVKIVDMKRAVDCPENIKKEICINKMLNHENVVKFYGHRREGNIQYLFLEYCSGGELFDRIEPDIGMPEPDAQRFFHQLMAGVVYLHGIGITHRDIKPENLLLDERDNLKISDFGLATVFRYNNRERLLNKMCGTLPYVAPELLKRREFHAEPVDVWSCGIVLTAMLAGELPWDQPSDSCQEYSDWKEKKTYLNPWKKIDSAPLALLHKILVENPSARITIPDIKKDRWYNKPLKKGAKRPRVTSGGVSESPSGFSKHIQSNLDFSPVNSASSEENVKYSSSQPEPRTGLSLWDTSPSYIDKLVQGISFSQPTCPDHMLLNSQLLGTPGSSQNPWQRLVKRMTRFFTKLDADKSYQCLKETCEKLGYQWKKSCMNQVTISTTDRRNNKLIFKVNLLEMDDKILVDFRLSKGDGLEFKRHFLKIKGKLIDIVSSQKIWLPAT
LIM domain kinase 1, sequence (P53667 whole entry, the tested form may be a part): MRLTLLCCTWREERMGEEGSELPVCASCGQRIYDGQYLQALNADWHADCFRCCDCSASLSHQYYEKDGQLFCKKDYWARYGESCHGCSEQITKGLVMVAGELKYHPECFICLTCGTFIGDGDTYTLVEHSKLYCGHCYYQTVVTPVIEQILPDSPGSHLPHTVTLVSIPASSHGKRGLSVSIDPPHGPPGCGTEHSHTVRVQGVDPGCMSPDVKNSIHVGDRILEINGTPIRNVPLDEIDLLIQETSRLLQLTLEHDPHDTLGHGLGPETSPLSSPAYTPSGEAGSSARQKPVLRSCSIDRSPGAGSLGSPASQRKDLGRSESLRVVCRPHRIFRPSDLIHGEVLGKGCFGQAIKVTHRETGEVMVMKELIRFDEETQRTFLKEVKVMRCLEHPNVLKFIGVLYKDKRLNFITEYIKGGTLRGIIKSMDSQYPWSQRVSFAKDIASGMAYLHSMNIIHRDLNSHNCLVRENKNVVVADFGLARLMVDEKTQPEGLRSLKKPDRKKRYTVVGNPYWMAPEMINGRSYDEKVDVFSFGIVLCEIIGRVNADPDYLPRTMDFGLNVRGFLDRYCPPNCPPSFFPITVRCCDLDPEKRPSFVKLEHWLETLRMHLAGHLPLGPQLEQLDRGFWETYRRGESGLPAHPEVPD
72 kDa type IV collagenase, sequence (P08253 whole entry): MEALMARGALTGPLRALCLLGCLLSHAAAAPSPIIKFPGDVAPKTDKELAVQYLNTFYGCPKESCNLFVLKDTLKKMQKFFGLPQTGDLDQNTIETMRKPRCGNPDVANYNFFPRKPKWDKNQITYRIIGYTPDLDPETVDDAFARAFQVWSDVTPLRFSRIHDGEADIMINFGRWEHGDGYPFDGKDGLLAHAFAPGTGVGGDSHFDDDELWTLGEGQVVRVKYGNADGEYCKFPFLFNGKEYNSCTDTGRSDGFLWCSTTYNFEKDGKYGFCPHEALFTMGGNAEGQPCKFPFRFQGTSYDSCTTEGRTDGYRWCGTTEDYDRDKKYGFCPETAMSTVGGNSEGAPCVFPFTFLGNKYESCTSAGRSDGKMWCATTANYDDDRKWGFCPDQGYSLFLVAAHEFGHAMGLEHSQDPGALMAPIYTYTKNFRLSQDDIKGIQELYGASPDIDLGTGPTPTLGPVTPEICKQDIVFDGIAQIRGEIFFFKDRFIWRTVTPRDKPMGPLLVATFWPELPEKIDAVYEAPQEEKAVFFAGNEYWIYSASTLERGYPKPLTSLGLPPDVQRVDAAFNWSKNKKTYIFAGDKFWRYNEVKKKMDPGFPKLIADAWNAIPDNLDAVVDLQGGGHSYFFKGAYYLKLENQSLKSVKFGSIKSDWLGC

Structure (SMILES): Cc1cc(Cl)ccc1Nc1ncccc1C(N)=O
- IC50 (HEK293): > 67.5 µM (inactive)
- IC50 [1]: > 67.5 µM (inactive)

Structure (SMILES): Cc1oc2nc(SCCCC(=O)NCCO)nc(N)c2c1C
- IC50 [2]: 6.46 µM (active)

Structure (SMILES): O=C(C[S+]([O-])c1ccc(C(F)(F)F)cc1[N+](=O)[O-])Oc1ccc(Cl)cc1 (stereo not drawn)
- IC50 [3]: > 64.6 µM (inactive)
- EC50 [4]: > 91.2 µM (inactive)
- IC50 (Melanocortin receptor 4): > 64.6 µM (inactive)
- EC50 [5]: > 91.2 µM (inactive)

Structure (SMILES): O=C(NN1C(=O)/C(=C\c2ccc(O)c([N+](=O)[O-])c2)SC1=S)c1ccccc1Cl
- AC50 [6]: 5.26 µM (active)
- AC50 [7]: 3.01 µM (active)
- IC50 (Prothrombin): 62.5 µM (active)
- IC50 [8]: 31.1 µM (active)
- IC50 [9]: 26.8 µM (active)

Structure (SMILES): COc1ccc(C(CCNC(C)c2ccccc2)c2ccc(F)cc2)cc1 (stereo not drawn)
- EC50 [10]: 9.11 µM (active)
- AC50 (A-375): 13.8 µM (active)
- AC50 [11]: 16.6 µM (active)
- EC50 [12]: 11.2 µM (active)

Structure (SMILES): COc1cccc(CNC(=O)CCNS(=O)(=O)c2cccc3nsnc23)c1
- IC50 (HEK293): > 67.5 µM (inactive)
- IC50 [1]: > 67.5 µM (inactive)

Structure (SMILES): O=C(c1ccco1)N1CCN(Cc2cc(=O)oc3cc(O)ccc23)CC1
- AC50 [13]: 19.5 µM (active)

Structure (SMILES): Cc1ccc(C(=O)NC2CCCC(C)C2C)cc1S(=O)(=O)N1CCCCC1 (stereo not drawn)
- IC50 [14]: 9.55 µM (active)

Structure (SMILES): CCCCCCCN(c1ccccc1)[C@@H]1C[C@H]2CCCC(=O)N3CC[C@@H](C1)[C@@H]23
- AC50 (Escherichia coli): 13.7 µM (active)
- AC50 [15]: 4.54 µM (active)
- IC50 [3]: 22.6 µM (inactive)
- AC50 [16]: 11.4 µM (active)
- IC50 (Melanocortin receptor 4): 7.91 µM (active)
- AC50 [17]: 46.4 µM (active)

Structure (SMILES): COc1cc(-c2ccc(=O)n(Cc3cccc(C)c3)n2)cc(OC)c1OC
- Ki [18]: 2 µM (active)
- Ki (LIM domain kinase 1): 1 µM (active)
- Ki [19]: 3.16 µM (active)
- Ki [20]: 1 µM (active)
- Ki [21]: 2.51 µM (active)

Structure (SMILES): O=C1CN=C(c2ccc(F)cc2)c2cn[nH]c2N1
- Ki [22]: 63.1 µM (active)
- Ki [23]: 79.4 µM (active)
- Ki [24]: 79.4 µM (active)
- Ki [25]: 100 µM (active)

Structure (SMILES): COc1ccc(-c2cnnc(N/N=C/c3ccc(O)c(O)c3)n2)cc1
- AC50 [7]: 0.482 µM (active)
- IC50 [26]: 63.9 µM (active)

Structure (SMILES): Nc1ccc(-c2csc3ccnc(N)c23)cc1
- Ki (Aurora kinase B): 0.2 µM (active)
- Ki (Aurora kinase A): 1.26 µM (active)

Structure (SMILES): COC(=O)N/N=C/c1cc(C)n(-c2ccccc2)c1C
- IC50 [14]: 11.5 µM (active)

Structure (SMILES): CC[C@H]1OC(=O)[C@H](C)[C@@H](O[C@H]2C[C@@](C)(OC)[C@@H](O)[C@H](C)O2)[C@H](C)[C@@H](O[C@@H]2O[C@H](C)C[C@H](N(C)C)[C@H]2O)[C@](C)(O)C[C@@H](C)CN(C)[C@H](C)[C@@H](O)[C@]1(C)O [AZITHROMYCIN]
- AC50 (Escherichia coli): 29.3 µM (active)
- EC50 (Streptococcus): 0.066 µM (active)
- EC50 [27]: < 0.06 µM (active)
